From BindingDB's records for doi:10.1021/jm100809g (F. Hoffmann-La Roche, 2011)

Target: Carnitine O-palmitoyltransferase 1, liver isoform (Rattus norvegicus) (UniProt P32198)
Assay: Maximal inhibition of rat CPT1A

Sequence of Carnitine O-palmitoyltransferase 1, liver isoform (Rattus norvegicus) (P32198 whole entry, looked up, canonical isoform): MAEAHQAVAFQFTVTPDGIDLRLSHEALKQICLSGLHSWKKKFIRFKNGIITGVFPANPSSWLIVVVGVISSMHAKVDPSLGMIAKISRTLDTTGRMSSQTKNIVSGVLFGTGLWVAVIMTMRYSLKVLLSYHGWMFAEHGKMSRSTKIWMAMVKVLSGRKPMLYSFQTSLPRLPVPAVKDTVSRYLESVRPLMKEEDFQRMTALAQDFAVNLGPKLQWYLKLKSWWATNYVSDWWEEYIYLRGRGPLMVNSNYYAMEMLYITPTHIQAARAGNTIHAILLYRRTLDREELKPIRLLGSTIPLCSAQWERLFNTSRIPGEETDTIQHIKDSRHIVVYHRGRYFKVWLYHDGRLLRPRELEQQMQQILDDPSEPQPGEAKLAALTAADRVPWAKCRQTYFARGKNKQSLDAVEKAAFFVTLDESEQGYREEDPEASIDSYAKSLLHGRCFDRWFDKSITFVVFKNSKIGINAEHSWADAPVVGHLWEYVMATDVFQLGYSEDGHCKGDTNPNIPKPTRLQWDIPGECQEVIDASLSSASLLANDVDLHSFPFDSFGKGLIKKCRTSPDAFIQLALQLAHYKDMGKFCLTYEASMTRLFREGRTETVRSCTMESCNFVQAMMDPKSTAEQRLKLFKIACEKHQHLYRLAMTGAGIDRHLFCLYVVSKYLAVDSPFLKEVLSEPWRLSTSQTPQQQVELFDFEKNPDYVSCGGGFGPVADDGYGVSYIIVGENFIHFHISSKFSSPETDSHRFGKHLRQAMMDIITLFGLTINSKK

**Q.** How did the IC50 turn out when O=C(NCc1cccs1)c1nn(Cc2cccc(C(F)(F)F)c2)c2ccccc12 was run?
**A.** 150 nM

**Q.** For COc1ccc(Cl)cc1S(=O)(=O)N1CC(C(=O)O)Oc2ccc(C(=O)Nc3cccc(F)c3)cc21 (configuration not stated), which IC50 is on record?
**A.** 30 nM

**Q.** How did the IC50 turn out when O=C(COc1ccccc1)N1CCCC[C@@H]1c1nc(-c2ccccn2)cs1 was run?
**A.** 130 nM

**Q.** With C[N+](C)(C)C[C@H](N)CC(=O)[O-] as the molecule, how does the IC50 read?
**A.** 27300 nM

**Q.** With CCCCCCCCCCCCCCNC(=O)N[C@H](CC(=O)[O-])C[N+](C)(C)C [[3-Carboxy-2-(3-tetradecyl-ureido)-propyl]-trimethyl-ammonium] as the molecule, how does the IC50 read?
**A.** 1450 nM

**Q.** With COc1ccc(Cl)cc1S(=O)(=O)N1CCc2ccc(C(=O)Nc3ccc(C(=O)O)cc3)cc21 as the molecule, how does the IC50 read?
**A.** 55 nM

**Q.** COc1ccc(C)cc1S(=O)(=O)N1CCCc2ccc(C(=O)Nc3ccc(CC(=O)O)cc3)cc21 was tested. Which IC50 did it give?
**A.** 180 nM
